Reference: patent US20250129130A1, “USE OF VARIOVORAX MICROBES AS AN ALTERNATIVE TREATMENT FOR COCCIDIOSIS” (ZIVO BIOSCIENCE, INC., priority 2020, published 2025)

Columns and labels:
[1] = system: E. acervuline, E. maxima, E. tenella oocysts; assay: Study No. 3: floor-pen broiler performance and digestive health under cocci-challenge + built-up litter; details: Coban 90 g/ton, Inventive Compound 125 g/ton
[2] = biological target: T1, TLR4 (Homo sapiens, UniProt O00206+Q9Y6Y9); details: Phase 2 multiple sclerosis trial, versus placebo; cited from earlier work
T1 sequence (O00206 24-839): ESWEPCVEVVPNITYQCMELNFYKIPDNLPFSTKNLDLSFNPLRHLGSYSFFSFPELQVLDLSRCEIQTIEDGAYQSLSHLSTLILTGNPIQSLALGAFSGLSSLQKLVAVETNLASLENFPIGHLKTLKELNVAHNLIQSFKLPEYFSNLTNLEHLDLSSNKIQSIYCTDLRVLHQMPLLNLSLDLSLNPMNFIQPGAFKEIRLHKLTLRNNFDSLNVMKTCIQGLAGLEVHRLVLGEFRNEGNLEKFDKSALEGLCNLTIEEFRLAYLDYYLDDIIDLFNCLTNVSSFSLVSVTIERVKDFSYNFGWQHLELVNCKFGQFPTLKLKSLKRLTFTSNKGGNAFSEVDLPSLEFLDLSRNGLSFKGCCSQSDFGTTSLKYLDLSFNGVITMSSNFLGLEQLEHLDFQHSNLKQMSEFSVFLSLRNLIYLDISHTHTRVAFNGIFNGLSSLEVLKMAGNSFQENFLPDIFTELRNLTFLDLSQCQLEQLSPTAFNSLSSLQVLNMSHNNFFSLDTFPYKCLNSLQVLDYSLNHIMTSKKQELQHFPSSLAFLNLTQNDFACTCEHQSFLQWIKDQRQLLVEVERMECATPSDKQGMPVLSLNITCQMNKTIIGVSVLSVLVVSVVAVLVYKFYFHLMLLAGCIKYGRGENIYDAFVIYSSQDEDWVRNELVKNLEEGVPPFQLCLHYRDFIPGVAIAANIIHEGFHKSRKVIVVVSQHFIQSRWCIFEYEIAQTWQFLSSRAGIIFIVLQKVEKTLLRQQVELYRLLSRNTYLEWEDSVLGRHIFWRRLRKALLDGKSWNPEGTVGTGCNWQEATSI
T1 sequence (Q9Y6Y9 17-160 limits assumed): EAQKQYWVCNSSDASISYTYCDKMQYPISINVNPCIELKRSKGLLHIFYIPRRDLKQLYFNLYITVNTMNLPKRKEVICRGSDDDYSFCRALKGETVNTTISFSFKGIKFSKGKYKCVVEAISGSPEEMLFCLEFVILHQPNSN

[3] = biological target: T1, TLR4; details: severe sepsis; cited from earlier work
[4] = system: mixed E. acervulina, E. maxima, and E. tenella coccidial inoculum; assay: Study No. 1: anticoccidial efficacy in feed, battery-cage broilers, mixed Eimeria challenge; assay type: in vivo, male broiler chickens; details: Salinomycin 60 g/t
Excerpt: A non-limiting example of a method for the improvement of growth efficiency in broiler chickens exposed to a coccidiosis disease challenge is set forth.
The study animals were chickens, specifically male broiler chickens. Day of hatch male broiler chicks were obtained. At the hatchery, the birds were sexed. Sets of ten chicks were randomly selected, group weighed and placed into cages. The number and disposition of all birds not used for allocation were documented. No birds were replaced during the course of the study. There were 80 birds per treatment group.
The poultry cages were blocked by location in the battery with block size equal to treatments. The study began when the birds, specifically broiler chickens, were placed on the day of hatch (DOT 0) at which time they were allocated to the experimental cages. Only healthy birds were selected. At placement the birds were fed the treatment feeds. Thermostatically controlled gas furnace/air conditioner maintained uniform temperature in the cages.
An un-medicated commercial type chicken starter compounded with feedstuffs commonly used in the United States was formulated. The diet was an all-vegetable feed having no antibiotics, organic acid, NSP enzyme, or direct fed microbial. This ration was fed ad libitum from the date of chick arrival until Day 28 of the study. The diet formulation was included in the source data. Experimental treatment feeds were prepared from this basal starter feed. Quantities of all basal feed and test articles used to prepare treatment batches were documented.
All birds were weighed by cage on DOT 0, 14, 20 and 28. Feed was weighed in on DOT 0. The remaining feed was weighed on DOT 14, 20, and 28.
Coccidial oocysts inoculation procedures were carried out. On Day 14 of the study, all birds except T1 orally received a mixed E. acervulina, E. maxima, and E. tenella coccidial inoculum diluted to a 1.0 ml volume (p.o.). Inoculum level attempted to produce a moderate challenge.
On DOT 20, a select number of birds from each cage were selected, sacrificed, weighed, and examined for the degree of presence of coccidia lesions. The Johnson and Reid (1970) method of coccidiosis lesion scoring was used to score the infected region(s) of the intestine. The scoring was based on a 0 to 4 score, with 0 being normal and 4 being the most severe. Also on Day 20 mixed feces were collected from each cage. Each sample was examined for the number of oocysts per gram fecal material by fecal floatation.
STUDY NO. 1—ANALYSIS METHODOLOGY Means for cage weight gain, feed consumption, feed conversion, lesion scores, oocyst counts (OPGs), and mortality were calculated.

[5] = DAY 0-20, infected Day 14, Inventive Compound 0.551%
[6] = DAY 0-28, infected Day 14, Inventive Compound 0.551%
[7] = DAY 14 (before challenge), Inventive Compound 0.551% in feed
[8] = DAY 14-20, infected Day 14, Inventive Compound 0.551%
[9] = DAY 14-28, infected Day 14, Inventive Compound 0.551%
[10] = DOT 20, Johnson and Reid 0 to 4 score, Inventive Compound 0.551%
[11] = Day 20 mixed feces, fecal floatation, Inventive Compound 0.551%

CC[C@@]1([C@@H]2O[C@@H]([C@H]3O[C@@](O)(CO)[C@H](C)C[C@@H]3C)C[C@@H]2C)CC[C@H]([C@]2(C)CC[C@]3(C[C@H](O)[C@@H](C)[C@@H]([C@@H](C)[C@@H](OC)[C@H](C)C(=O)O)O3)O2)O1 [Coban, Monensin, USP]
% Mortality ([1]; DAY 0-14, challenge Day 7): 0.833a % | Avg Body Weight (g) ([1]; DAY 0-14, challenge Day 7): 496.13a g | FCR ([1]; DAY 0-14, challenge Day 7): 1.112ab | Feed Intake (g/bird/day) ([1]; DAY 0-14, challenge Day 7): 34.680b g/bird/day | % Mortality ([1]; DAY 0-21): 1.563a % | Avg Body Weight (g) ([1]; DAY 0-21): 951.80a g | FCR ([1]; DAY 0-21): 1.151a | Feed Intake (g/bird/day) ([1]; DAY 0-21): 54.811a g/bird/day | % Mortality ([1]; DAY 0-28): 1.563a % | Avg Body Weight (g) ([1]; DAY 0-28): 1535.00a g | FCR ([1]; DAY 0-28): 1.387a | Feed Intake (g/bird/day) ([1]; DAY 0-28): 78.960c g/bird/day | % Mortality ([1]; DAY 15-21): 0.729a % | Avg Body Weight (g) ([1]; DAY 15-21): 445.167a g | FCR ([1]; DAY 15-21): 1.244ab | Feed Intake (g/bird/day) ([1]; DAY 15-21): 77.988a g/bird/day | % Mortality ([1]; DAY 22-28): 0.000a % | Avg Body Weight (g) ([1]; DAY 22-28): 583.217a g | FCR ([1]; DAY 22-28): 1.825a | Feed Intake (g/bird/day) ([1]; DAY 22-28): 151.410c g/bird/day | DAY 14 Avg Lesion Score Ceca ([1]; Day 14): 0.292a | DAY 14 Avg Lesion Score Duodenum ([1]; Day 14): 0.375b | DAY 28 Avg Lesion Score Ceca ([1]; Day 28): 0.229a | DAY 28 Avg Lesion Score Duodenum ([1]; Day 28): 0.208a

CC(C)C(=O)c1c(C(C)C)nn2ccccc12 [Ibudilast]
rates of gastrointestinal side effects, headache, and depression [2]: higher rates

CCOC(=O)C1=CCCC[C@H]1S(=O)(=O)Nc1ccc(F)cc1Cl [Resatorvid]
mortality in Phase 3 clinical trials [3]: failed to reduce mortality

CC[C@@H](C(=O)[C@@H](C)[C@@H](O)[C@H](C)[C@@H]1O[C@@H]([C@@H](CC)C(=O)O)CC[C@@H]1C)[C@H]1O[C@]2(C=C[C@@H](O)[C@]3(CC[C@@](C)([C@H]4CC[C@](O)(CC)[C@H](C)O4)O3)O2)[C@H](C)C[C@@H]1C [Salinomycin]
FCR [4, 5]: 1.597bc | Feed Intake [4, 5]: 5.433a | Wt. Gain [4, 5]: 0.360b | FCR [4, 6]: 1.625bc | Feed Intake [4, 6]: 5.918a | Wt. Gain [4, 6]: 0.376b | FCR [4, 7]: 1.156a | Feed Intake [4, 7]: 2.384a | Wt. Gain [4, 7]: 0.218a | FCR [4, 8]: 1.744b | Feed Intake [4, 8]: 3.049a | Wt. Gain [4, 8]: 0.185b | FCR [4, 9]: 1.766c | Feed Intake [4, 9]: 3.534a | Wt. Gain [4, 9]: 0.202b | Lesion Scores Avg. [4, 10]: 1.3c | Lesion Scores Eimeria acervulina [4, 10]: 2.1c | Lesion Scores Eimeria maxima [4, 10]: 0.9c | Lesion Scores Eimeria tenella [4, 10]: 0.7c | Oocysts per Gram Fecal Material Avg. [4, 11]: 9722b | Oocysts per Gram Fecal Material Eimeria acervulina [4, 11]: 4511a | Oocysts per Gram Fecal Material Eimeria maxima [4, 11]: 484b | Oocysts per Gram Fecal Material Eimeria tenella [4, 11]: 4727c
